Common to all, as to type: cell-based
The subject of assay [1] is OV. The assay can be described thus: XTT cytotoxicity assay (OV). The conditions noted are these: abbreviation not defined. How it is done: The XTT assay is a non-radioactive alternative for the [^51Cr] release cytotoxicity assay. XTT is a tetrazolium salt that is reduced to a formazan dye only by metabolically active, viable cells. The reduction of XTT is measured spectrophotometrically as OD490-OD650. After 72 hours of incubation, cells are incubated for 4 hours with the XTT reagent as per manufacturer's instructions (Cell Proliferation Kit II (XTT) Roche). Plates are read at OD490 and OD650 on a Molecular Devices SpectraMax Plus Spectrophotometer. Three wells containing the XTT reagent without cells serve as the plate blank. XTT data are reported as OD490-OD650. Averages and standard error of the mean are computed using SOFTmax Pro software (Molecular Dynamics). The IC50 for the compounds is defined as the concentration of drug leading to a 50% reduction in OD490-OD650 compared to controls. The OD490-OD650 are computed by the SOFTmax PRO software (Molecular Devices) for each compound concentration. IC50 is calculated by linear regression, plotting the FAS activity as percent of control versus drug concentrations. Linear regression, best-fit line, r^2, and 95% confidence intervals are determined using Prism Version 3.0 (Graph Pad Software).

Assay [2] concerns MCF-7 human breast cancer cells. Description: Crystal violet cell growth assay. Conditions: MCF7, MCF-7, 72 hours, read-out: Cr. Violet (IC50). How it is done: The crystal violet assay measures cell growth but not cytotoxicity. This assay employs crystal violet staining of fixed cells in 96-well plates with subsequent solubilization and measurement of OD490 on a spectrophotometer. The OD490 corresponds to cell growth per unit time measured. Cells are treated with the compounds of interest or vehicle controls and IC50 for each compound is computed.
To measure the cytotoxicity of specific compounds against cancer cells, 5×10^4 MCF-7 human breast cancer cells, obtained from the American Type Culture Collection are plated per well in 24 well plates in DMEM medium with 10% fetal bovine serum, penicillin, and streptomycin. Following overnight culture at 37° C. and 5% CO2, the compounds to be tested, dissolved in DMSO, are added to the wells in 1 μl volume at the following concentrations: 50, 40, 30, 20, and 10 μg/ml in triplicate. Additional concentrations are tested if required. 1 μl of DMSO is added to triplicate wells are the vehicle control. C75 is run at 10, and 5 μg/ml in triplicate as positive controls.
After 72 hours of incubation, cells are stained with 0.5 ml of Crystal Violet stain (0.5% in 25% methanol) in each well. After 10 minutes, wells are rinsed, air dried, and then solubilized with 0.5 ml 10% sodium dodecylsulfate with shaking for 2 hours. Following transfer of 100 μl from each well to a 96-well plate, plates are read at OD490 on a Molecular Devices SpectraMax Plus Spectrophotometer Average OD490 values are computed using SOFTmax Pro Software (Molecular Devices) and IC50 values are determined by linear regression analysis using Prism version 3.02 (Graph Pad Software, San Diego).

In assay [3] the test system is β-Oxidation of (1-14C) palmitic acid in cells. Description: β-Oxidation assay, isolation of acid soluble products. Details: unit not given here. How it is done:
A 24 well plate with 1 ml per well was prepared with 2.5×10^5 cells /well. The cells were incubated O/N. The next day, a solubilized palmitate solution was prepared. 50 μls of (1−^14C) Palmitic acid was added to a 2 ml centrifuge tube and dried under nitrogen gas. 2 mls of α-CD (α-Cyclodextran)—10 mg/ml in 10 mM Tris were added. This solution was incubated in a 37° C. water bath for 30 minutes. A hot mix was prepared by adding 25 μl of this solution to 2.5 μls of 200 μM Carnitine and 222.5 μl of serum free medium that is used for cells. The cells were then treated with the test compound in triplicate, and incubated. at 37° C. for 60 minutes. The medium was removed and 250 μl of the hot mix were added. The test compound was added again, and further incubated at 37° C. for 60 minutes. The reaction was stopped with 50 μl of 2.6 N HClO4. The contents of the plate were transferred to a 1.5 ml centrifuge tube, and 50 μl of 4N KOH were then added, and the tube incubated in a 60° C. water bath for 30 min. Sodium acetate (1 M, 75 μl) and sulfuric acid (3N, 50 μl) were added to the solution and vortexed. The tube was spun for 7 minutes at 1000 rpm at room temperature. A portion (225 μl) was removed, and the following were added (vortex after each addition, twice at the end): 938 μl of 1:1 Chloroform: Methanol; 468 μl of Chloroform; 281 μl distilled Water. The tubes were spun at 1000 rpm for 5 minutes. The upper phase was removed into a large glass scintillation vial and 5 ml of Budget solvent (scintillation liquid) was added. The tubes were well vortexed. Finally, ^14C was counted for one minute.

As usually defined, the IC50 is the concentration needed to halve the response being measured.

Each structure is given as a SMILES string. Values after ≈ are worked out from the molar mass of the structure shown.

On to `CCCCCCCCC1OC(=O)C(=O)C1C(=O)OCC` (centres unmarked) [Compound 1], for which the figures for the IC50 in assay [1] and in assay [2] were 18.4 ± 5.8 µg/mL (≈ 64.7 µM) and 28 µg/mL (≈ 98.5 µM), respectively.
With `CCCCCCCCC1OC(=O)C(OCc2ccccc2)=C1C(=O)OCC` (centres unmarked) [Compound 5], the Beta oxidation in assay [3] (1.25 ug/ml) came to 108; in assay [3] (2.5 ug/ml) it was 101; in assay [3] (5 ug/ml), 115; in assay [3] (10 ug/ml), 74. Moreover, the half-maximal inhibitory concentration (IC50) in assay [1] turned out to be 33.9 µg/mL (≈ 90.5 µM); in assay [2], 17.1 µg/mL (≈ 45.7 µM).
As to `CCCCC1OC(=O)C(O)=C1C(=O)OCC` (centres unmarked) [Compound 2], the Beta oxidation was determined as 102 in assay [3] (0.19 ug/ml); 102 in assay [3] (0.39 ug/ml); 112 in assay [3] (1.56 ug/ml); 108 in assay [3] (12.5 ug/ml); 45 in assay [3] (50 ug/ml); 107 in assay [3] (.78 ug/ml). In addition, the half-inhibitory concentration (IC50) in assay [1] worked out at 66.1 µg/mL (≈ 290 µM); in assay [2] it was 41.9 µg/mL (≈ 184 µM).
In the case of `CCCCCCCCC1OC(=O)C(OCC(=O)OCC)=C1C(=O)OCC` (centres unmarked) [Compound 3], the Beta oxidation in assay [3] (1.25 ug/ml) worked out at 113; in assay [3] (2.5 ug/ml), 131; in assay [3] (5 ug/ml) it was 138; in assay [3] (10 ug/ml), 79. Further, the IC50 is 24.1 µg/mL (≈ 65.1 µM) in assay [1] and 35.4 µg/mL (≈ 95.6 µM) in assay [2].
For the compound `CCCCCCCCC1OC(=O)C(OC)=C1C(=O)OCC` (centres unmarked) [Compound 4], the Beta oxidation was 112 in assay [3] (1.25 ug/ml), 119 in assay [3] (2.5 ug/ml), 116 in assay [3] (5 ug/ml) and 104 in assay [3] (10 ug/ml). The 50% inhibitory concentration (IC50) in assay [1] was 9.2 µg/mL (≈ 30.8 µM); in assay [2] it was 10.7 µg/mL (≈ 35.9 µM).
With `CCCCCCCCC1OC(=O)C(OC(=O)OCC)=C1C(=O)OCC` (centres unmarked) [Compound 7], the Beta oxidation in assay [3] (0.09 ug/ml) was 99; in assay [3] (0.39 ug/ml), 107; in assay [3] (1.56 ug/ml), 113; in assay [3] (6.25 ug/ml), 146; in assay [3] (25 ug/ml), 131; in assay [3] (100 ug/ml) it was 54. The IC50 in assay [1] turned out to be 13.8 µg/mL (≈ 38.7 µM).
Turning to `C=CCOC1=C(C(=O)OCC)C(CCCCCCCC)OC1=O` (centres unmarked) [Compound 6], the Beta oxidation worked out at 118 in assay [3] (1.25 ug/ml), 125 in assay [3] (2.5 ug/ml), 112 in assay [3] (5 ug/ml) and 101 in assay [3] (10 ug/ml). Further, the IC50 was above 80 µg/mL in assay [1] and 22 µg/mL (≈ 67.8 µM) in assay [2].
